Results reported in the NIST ThermoML archive (doi:10.1016/j.jct.2015.06.005).

Key:
[1] = refractive index (Na D-line) (dimensionless); xn = mol fraction of the nth substance listed; settings: 100 kPa, Liquid, Standard Abbe refractometry
[2] = xn = mol fraction of the nth substance listed; settings: 100 kPa, Liquid; for speed of sound: Frequency=3 MHz, Sing-around technique in a fixed-path interferometer; for mass density: Vibrating tube method

CCCCCCCCN1CCCC1=O [N-octyl-2-pyrrolidone] + CCCCn1cc[n+](C)c1.F[B-](F)(F)F
Settings	mass density, [2] [kg/m3]	refractive index, [1]	speed of sound, [2] [m/s]
298.15 K, x2 = 0	918.45	1.46346	1450.2
298.15 K, x2 = 0.1084	945.54	1.46095	1454.9
298.15 K, x2 = 0.196	965.52	1.45803	1457.4
298.15 K, x2 = 0.3023	991.51	1.45399	1461.3
298.15 K, x2 = 0.4087	1020.1	1.44986	1467.5
298.15 K, x2 = 0.5064	1045.47	1.44556	1474
298.15 K, x2 = 0.6027	1074.31	1.44155	1485.8
298.15 K, x2 = 0.6981	1103.56	1.43713	1499.9
298.15 K, x2 = 0.7966	1133.07	1.43209	1517.6
298.15 K, x2 = 0.8978	1164.87	1.42695	1539.8
303.15 K, x2 = 0	914.8	1.46152	1432.6
303.15 K, x2 = 0.1084	941.91	1.45882	1438.3
303.15 K, x2 = 0.196	961.89	1.45622	1441.3
303.15 K, x2 = 0.3023	987.89	1.45226	1445.3
303.15 K, x2 = 0.4087	1016.54	1.4482	1452.1
303.15 K, x2 = 0.5064	1041.86	1.44392	1459.2
303.15 K, x2 = 0.6027	1070.71	1.43996	1471.7
303.15 K, x2 = 0.6981	1099.98	1.43564	1486
303.15 K, x2 = 0.7966	1129.48	1.4307	1504.5
303.15 K, x2 = 0.8978	1161.29	1.42526	1527.3
308.15 K, x2 = 0	911.14	1.45955	1415.3
308.15 K, x2 = 0.1084	938.28	1.45675	1421.6
308.15 K, x2 = 0.196	958.26	1.45433	1424.9
308.15 K, x2 = 0.3023	984.27	1.45051	1429.4
308.15 K, x2 = 0.4087	1012.96	1.44653	1436.8
308.15 K, x2 = 0.5064	1038.25	1.4423	1444.4
308.15 K, x2 = 0.6027	1067.16	1.43842	1457.4
308.15 K, x2 = 0.6981	1096.42	1.43416	1472.3
308.15 K, x2 = 0.7966	1125.91	1.42923	1491.4
308.15 K, x2 = 0.8978	1157.71	1.42379	1514.9
313.15 K, x2 = 0	907.49	1.45761	1398
313.15 K, x2 = 0.1084	934.64	1.45482	1405
313.15 K, x2 = 0.196	954.63	1.45243	1408.7
313.15 K, x2 = 0.3023	980.66	1.44871	1413.7
313.15 K, x2 = 0.4087	1009.39	1.44484	1421.6
313.15 K, x2 = 0.5064	1034.65	1.44059	1429.7
313.15 K, x2 = 0.6027	1063.63	1.43681	1443.3
313.15 K, x2 = 0.6981	1092.9	1.43266	1458.8
313.15 K, x2 = 0.7966	1122.36	1.42777	1478.6
313.15 K, x2 = 0.8978	1154.16	1.4223	1502.7
318.15 K, x2 = 0	903.83	1.45564	1380.9
318.15 K, x2 = 0.1084	931.01	1.45292	1388.6
318.15 K, x2 = 0.196	951.01	1.45054	1392.7
318.15 K, x2 = 0.3023	977.05	1.44692	1398.2
318.15 K, x2 = 0.4087	1005.86	1.44312	1406.6
318.15 K, x2 = 0.5064	1031.07	1.43894	1415.2
318.15 K, x2 = 0.6027	1060.13	1.43513	1429.4
318.15 K, x2 = 0.6981	1089.38	1.43111	1445.5
318.15 K, x2 = 0.7966	1118.83	1.4263	1465.9
318.15 K, x2 = 0.8978	1150.62	1.4208	1490.6
323.15 K, x2 = 0	900.17	1.45367	1364
323.15 K, x2 = 0.1084	927.39	1.45088	1372.3
323.15 K, x2 = 0.196	947.4	1.44862	1376.7
323.15 K, x2 = 0.3023	973.44	1.44512	1382.7
323.15 K, x2 = 0.4087	1002.29	1.44146	1391.8
323.15 K, x2 = 0.5064	1027.48	1.43731	1400.8
323.15 K, x2 = 0.6027	1056.67	1.43346	1415.6
323.15 K, x2 = 0.6981	1085.86	1.42954	1432.2
323.15 K, x2 = 0.7966	1115.32	1.42478	1453.3
323.15 K, x2 = 0.8978	1147.1	1.41935	1478.6
